Results reported in ChEMBL document CHEMBL4765272, “Design, synthesis and biological evaluation of tyrosine derivatives as Mcl-1 inhibitors” (Eur J Med Chem, 2020).
Active and inactive are the calls of the source. No cut-off for these calls is given here.

Key:
[1] = system: HepG2; assay: Induction of apoptosis in human HepG2 cells assessed as early apoptotic cells at 20 uM measured after 48 hrs by Annexin V-FITC/propidium iodide staining based flow cytometry (reference value: 0.71%); assay type: functional
[2] = Antiproliferative activity against human KM3 cells incubated for 72 hrs by MTT assay; assay type: functional, cell-based; conditions: KM3, 72 h
[3] = system: HepG2; assay: Induction of apoptosis in human HepG2 cells assessed as necrotic cells at 20 uM measured after 48 hrs by Annexin V-FITC/propidium iodide staining based flow cytometry (reference value: 0.52%); assay type: functional
[4] = system: HepG2; assay: Induction of apoptosis in human HepG2 cells at 10 to 20 uM measured after 48 hrs by TUNEL staining based fluorescence microscopy; assay type: functional, cell-based; conditions: dose 10-20 µM
[5] = Induction of apoptosis in human KM3 cells assessed as necrotic cells at 10 uM measured after 48 hrs by Annexin V-FITC/propidium iodide staining based flow cytometry (reference value: 0.42%); assay type: functional
[6] = Induction of apoptosis in human KM3 cells assessed as late apoptotic cells at 10 uM measured after 48 hrs by Annexin V-FITC/propidium iodide staining based flow cytometry (reference value: 1.15%); assay type: functional
[7] = system: HepG2; assay: Induction of apoptosis in human HepG2 cells assessed as late apoptotic cells at 20 uM measured after 48 hrs by Annexin V-FITC/propidium iodide staining based flow cytometry (reference value: 1.93%); assay type: functional
[8] = system: HepG2; assay: Induction of apoptosis in human HepG2 cells assessed as late apoptotic cells at 10 uM measured after 48 hrs by Annexin V-FITC/propidium iodide staining based flow cytometry (reference value: 1.93%); assay type: functional
[9] = target: Bcl-2-like protein 1 (Homo sapiens) (UniProt Q07817); assay: Inhibition of 5-FAM-BH3 peptide binding to human N-terminal GST-tagged BCL-XL (1 to 212 residues) expressed in Escherichia coli BL21 (DE3) at 100 uM by fluorescence polarization assay relative to control
Chain of Bcl-2-like protein 1 (Homo sapiens) (Q07817 whole entry, the tested form may be a part): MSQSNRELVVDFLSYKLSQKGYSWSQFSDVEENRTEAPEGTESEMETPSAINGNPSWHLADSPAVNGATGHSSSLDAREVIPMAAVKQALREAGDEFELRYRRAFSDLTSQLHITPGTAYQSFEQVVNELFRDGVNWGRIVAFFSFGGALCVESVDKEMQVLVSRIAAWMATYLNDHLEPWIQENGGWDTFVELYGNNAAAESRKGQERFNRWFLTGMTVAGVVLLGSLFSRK

[10] = Induction of apoptosis in human KM3 cells assessed as early apoptotic cells at 10 uM measured after 48 hrs by Annexin V-FITC/propidium iodide staining based flow cytometry (reference value: 2.18%); assay type: functional
[11] = system: HepG2; assay: Induction of apoptosis in human HepG2 cells assessed as necrotic cells at 10 uM measured after 48 hrs by Annexin V-FITC/propidium iodide staining based flow cytometry (reference value: 0.52%); assay type: functional
[12] = Induction of apoptosis in human KM3 cells assessed as necrotic cells at 20 uM measured after 48 hrs by Annexin V-FITC/propidium iodide staining based flow cytometry (reference value: 0.42%); assay type: functional
[13] = system: HepG2; assay: Induction of apoptosis in human HepG2 cells assessed as viable cells at 20 uM measured after 48 hrs by Annexin V-FITC/propidium iodide staining based flow cytometry (reference value: 96.84%); assay type: functional; conditions: read-out: Activity
[14] = Induction of apoptosis in human KM3 cells assessed as early apoptotic cells at 20 uM measured after 48 hrs by Annexin V-FITC/propidium iodide staining based flow cytometry (reference value: 2.18%); assay type: functional
[15] = Induction of apoptosis in human KM3 cells assessed as viable cells at 20 uM measured after 48 hrs by Annexin V-FITC/propidium iodide staining based flow cytometry (reference value: 96.24%); assay type: functional; conditions: read-out: Activity
[16] = Induction of apoptosis in human KM3 cells assessed as viable cells at 10 uM measured after 48 hrs by Annexin V-FITC/propidium iodide staining based flow cytometry (reference value: 96.24%); assay type: functional; conditions: read-out: Activity
[17] = system: HepG2; assay: Induction of apoptosis in human HepG2 cells assessed as viable cells at 10 uM measured after 48 hrs by Annexin V-FITC/propidium iodide staining based flow cytometry (reference value: 96.84%); assay type: functional; conditions: read-out: Activity
[18] = Inhibition of 5-FAM-BH3 peptide binding to human N-terminal GST-tagged BCL-2 (1 to 34 residues)/BCL-XL (29 to 44 residues)/BCL-2 isoform 2 (92 to 207 residues) expressed in Escherichia coli BL21 (DE3) by fluorescence polarization assay
[19] = system: HepG2; assay: Antiproliferative activity against human HepG2 cells incubated for 72 hrs by MTT assay; assay type: functional, cell-based; conditions: HepG2, 72 h
[20] = Induction of apoptosis in human KM3 cells assessed as late apoptotic cells at 20 uM measured after 48 hrs by Annexin V-FITC/propidium iodide staining based flow cytometry (reference value: 1.15%); assay type: functional
[21] = system: HepG2; assay: Induction of apoptosis in human HepG2 cells assessed as early apoptotic cells at 10 uM measured after 48 hrs by Annexin V-FITC/propidium iodide staining based flow cytometry (reference value: 0.71%); assay type: functional
[22] = Inhibition of 5-FAM-BH3 peptide binding to N-terminal His8-tagged human MCL-1 (209 to 327 residues)/mouse MCL-1 (152 to 189 residues) expressed in Escherichia coli BL21 (DE3) by fluorescence polarization assay
[23] = system: RPMI-8226; assay: Antiproliferative activity against human RPMI-8226 cells incubated for 72 hrs by MTT assay; assay type: functional, cell-based; conditions: RPMI-8226, 72 h
[24] = system: PC-3; assay: Antiproliferative activity against human PC-3 cells incubated for 72 hrs by MTT assay; assay type: functional, cell-based; conditions: PC-3, 72 h
[25] = system: MOLT-4; assay: Antiproliferative activity against human MOLT-4 cells incubated for 72 hrs by MTT assay; assay type: functional, cell-based; conditions: MOLT-4, 72 h
[26] = system: NCI-H1299; assay: Antiproliferative activity against human NCI-H1299 cells incubated for 72 hrs by MTT assay; assay type: functional, cell-based; conditions: NCI-H1299, 72 h
[27] = system: Jurkat; assay: Antiproliferative activity against human Jurkat cells incubated for 72 hrs by MTT assay; assay type: functional, cell-based
[28] = system: HepG2; assay: Induction of apoptosis in human HepG2 cells measured after 48 hrs by TUNEL staining based fluorescence microscopy; assay type: functional, cell-based
[29] = system: KM3; assay: Induction of apoptosis in human KM3 cells measured after 48 hrs by Annexin V-FITC/propidium iodide staining based flow cytometry; assay type: functional, cell-based
[30] = system: HepG2; assay: Induction of apoptosis in human HepG2 cells transfected with siMcl-1 at 10 uM measured after 48 hrs by Annexin V-FITC/propidium iodide staining based flow cytometry; assay type: functional, cell-based
[31] = system: HepG2; assay: Induction of apoptosis in human HepG2 cells measured after 48 hrs by Annexin V-FITC/propidium iodide staining based flow cytometry; assay type: functional, cell-based
[32] = species: Homo sapiens; assay: Inhibition of 5-FAM-BH3 peptide binding to human N-terminal GST-tagged BCL-2 (1 to 34 residues)/BCL-XL (29 to 44 residues)/BCL-2 isoform 2 (92 to 207 residues) expressed in Escherichia coli BL21 (DE3) at 100 uM by fluorescence polarization assay relative to control

O=C(O)CSc1cc(NS(=O)(=O)c2ccc(Br)cc2)c2ccccc2c1O
Activity [1]: 2.44% | IC50 [2]: 11.2 µM | Activity [3]: 0.45% | Activity [4]: Active | Activity [5]: 0.31% | Activity [6]: 11.64% | Activity [7]: 86.11% | Activity [8]: 20.03% | inhibition [9]: > 50% | Activity [10]: 15.35% | Activity [11]: 1.36% | Activity [12]: 1.52% | viability at 20 µM [13]: 11% | Activity [14]: 40.5% | viability at 20 µM [15]: 23.8% | viability at 10 µM [16]: 72.7% | viability at 10 µM [17]: 76.4% | Ki [18]: 11 µM | IC50 [19]: 11.4 µM | Activity [20]: 34.2% | Activity [21]: 2.23% | Ki [22]: 210 nM | IC50 [23]: 5.77 µM | IC50 [24]: 8.43 µM | IC50 [25]: 3.14 µM | IC50 [26]: 6.08 µM | IC50 [27]: 9.79 µM

Cc1cc(OCCCOc2ccc(C[C@H](NC(=O)OC(C)(C)C)C(=O)NS(=O)(=O)c3ccc(NCCCc4ccccc4)c([N+](=O)[O-])c3)cc2)cc(C)c1Cl
Activity [28]: Dose-dependent effect | Activity [1]: 3.4% | IC50 [2]: 8.25 µM | Activity [3]: 2.64% | Activity [5]: 0.66% | Activity [6]: 4.94% | Activity [7]: 78.54% | Activity [8]: 7.18% | inhibition [9]: > 50% | Activity [10]: 12.11% | Activity [11]: 2.02% | Activity [12]: 2.09% | viability at 20 µM [13]: 15.4% | Activity [14]: 20.71% | viability at 20 µM [15]: 12.9% | viability at 10 µM [16]: 82.3% | Activity [29]: Dose-dependent effect | viability at 10 µM [17]: 88.6% | Activity [30]: inactive | Ki [18]: 1.1 µM | IC50 [19]: 6.42 µM | Activity [20]: 64.31% | Activity [21]: 2.24% | Ki [22]: 180 nM | IC50 [23]: 6.34 µM | IC50 [24]: 15.8 µM | IC50 [25]: 17.4 µM | IC50 [26]: 20.7 µM | Activity [31]: Dose-dependent effect | IC50 [27]: 15.1 µM

Cc1ccc(CC(=O)N[C@@H](Cc2cc(I)c(OCCOc3cccc4ccccc34)c(I)c2)C(=O)NS(=O)(=O)c2ccc(NCCCc3ccccc3)c([N+](=O)[O-])c2)cc1
IC50 [2]: 8.26 µM | inhibition [9]: > 50% | inhibition [32]: > 50% | IC50 [19]: 12.7 µM | Ki [22]: 210 nM | IC50 [23]: 7.35 µM | IC50 [24]: 18.2 µM | IC50 [25]: 18 µM | IC50 [26]: 21.5 µM | IC50 [27]: 17.2 µM

Cc1ccc(CC(=O)N[C@@H](Cc2cc(Br)c(OCCOc3cccc4ccccc34)c(Br)c2)C(=O)NS(=O)(=O)c2ccc(NCCCc3ccccc3)c([N+](=O)[O-])c2)cc1
Activity [28]: Dose-dependent effect | Activity [1]: 2.38% | IC50 [2]: 11.5 µM | Activity [3]: 2.04% | Activity [5]: 0.73% | Activity [6]: 4.31% | Activity [7]: 80.03% | Activity [8]: 9.03% | inhibition [9]: > 50% | Activity [10]: 10.47% | Activity [11]: 2.63% | Activity [12]: 0.93% | viability at 20 µM [13]: 15.6% | Activity [14]: 16.21% | viability at 20 µM [15]: 8.34% | viability at 10 µM [16]: 84.5% | Activity [29]: Dose-dependent effect | viability at 10 µM [17]: 85.9% | inhibition [32]: > 50% | Activity [30]: inactive | IC50 [19]: 7.5 µM | Activity [20]: 74.52% | Activity [21]: 2.44% | Ki [22]: 230 nM | IC50 [23]: 7.67 µM | IC50 [24]: 18.9 µM | IC50 [25]: 17.7 µM | IC50 [26]: 21.6 µM | Activity [31]: Dose-dependent effect | IC50 [27]: 16.5 µM
